# Measurements reported in patent US20220370553A1, “PREBIOTIC-INDUCED ANTI-TUMOR IMMUNITY” (Sanford Burnham Prebys Medical Discovery Institute, priority 2019, published 2022).
# Assays:
# Yumm1.5 tumors = experiment: Growth of Yumm1.5 melanoma tumors in prebiotic-fed mice; assay type: in vivo, C57BL/6 mice; details: mucin 3% in drinking water or inulin 15% w/w chow from 2 weeks prior to inoculation of 1×10^6 Yumm1.5 cells
# Excerpt: FIG. 2B, Quantification of tumor-infiltrating effector (CD44hi) CD4+, CD8+ and CD45+ T cells from mice treated as in FIG. 2A (n=10). FIG. 2C, Quantification of tumor-infiltrating, IFN-g-producing CD4+ T cells from mice treated as in FIG. 2A (n=10). FIG. 2D, Quantification of tumor-infiltrating total DCs and subsets in mice treated as in FIG. 2A (n=10). FIG. 2E, MFI of MHC class I and MHC class II on DCs from the tumors of mice treated as in FIG. 2A (n=10). […] Graphs show the mean s.e.m. *P<0.05, **P<0.005, ***P<0.001,****P<0.0001 by two-way ANOVA with Tukey's correction (A) and by one-way ANOVA with Tukey's correction (B-E).
# OT-I CD8+ T cells = experiment: In vivo OT-I T cell assay with B16-OVA melanoma cells; parameters: species or system C57BL/6 mice; details: mucin-treated vs control mice
# Description: Right dot plots show gating of CD45.1+CD8+ cells (n=6). FIG. 4B Quantification of CD45.1+OT-I CD8+ T cell number in the tumor-draining lymph nodes (TdLN) and non-draining lymph nodes (ndLN) of WT C57BL/6 mice CD45.2+ mice that were injected with B16-OVA melanoma cells (n=10). Graphs show the mean s.e.m. *P<0.05, by two-tailed t-test or Mann-Whitney U test.
# In vivo OT-I T cell proliferation assay. […] After 24 h, the mice were injected s.c. with 1×10^6 B16-OVA melanoma cells and the mice were left for 7 days. The spleen, tumor-draining lymph nodes, and non-draining lymph nodes were harvested and analyzed by flow cytometry. The proliferation of OT-1 CD8+ T cells was assessed by analysis of CFSE dilution within the population by gating on CD45.1+CD8+ T cells.
# To assess the activation and homing of tumor-specific T cells in prebiotic-treated mice, an adoptive transfer model was used with OVA-specific OT-I transgenic T cells. OVA-specific OT-I CD8+, CD45.1+ T cells were transferred into untreated or mucin-treated WT mice. Mice were injected with OVA-expressing B16F10 tumor cells, and the frequency of OVA-specific OT-I T cells was monitoring in tumor draining and non-tumor-draining lymph nodes. OT-I CD8+ T cells were more abundant in the tumor-draining lymph nodes of mucin-treated mice, compared with control mice (FIG. 4A-B).
# CD8+ T cells = experiment: qRT-PCR of cytokine and chemokine mRNAs in CD8+ T cells in vitro; assay type: cell-based, mice; details: 0.05 or 0.5 mg/ml in vitro; in some conditions
# Excerpt: Data are representative of two independent experiments. Graphs show the mean±s.e.m. *P<0.05, **P<0.005, ***P<0.001, ****P<0.0001 one-way ANOVA with Tukey's correction.
# RNA extraction and qRT-PCR analyses. Total RNA was extracted from tumor samples individually using the RNeasy Fibrous Tissue Midi kit (QIAGEN) or cells treated as indicated using High Capacity Reverse Transcriptase kits (Invitrogen) according to the manufacturer's protocol. Purity and concentration of extracted RNA were checked and quantified by reading at 260 and 280 nm in a NanoDrop spectrophotometer (Thermo Fisher). The qRT-PCR analyses were performed using Syber Green RT-PCR kits (Invitrogen) on a Bio-Rad CFX Connect Real-Time system. Expression levels normalized to 18S or Tubb5 controls.
# [1] = system: SW1 (syngeneic NRAS mutant melanoma) cells; experiment: SW1 melanoma growth with mucin and/or inulin; assay type: in vivo, C3H/HeOuJ mice; details: 3% mucin in drinking water and/or 15% inulin diet from 14 days prior to inoculation
# Description: FIG. 17A Growth of SW1 mouse melanoma cells in C3H/HeOuJ mice that were fed with 0 or 3% mucin in drinking water and/or a diet enriched with 15% inulin, starting 14 days prior to (and continued after) tumor inoculation (n=10). FIG. 17B. […] Graphs show the mean±s.e.m. *P<0.05, **P<0.005,***P<0.001, ****P<0.0001 by two-way ANOVA with Tukey's correction.
# Animals and tumor models. All experimental animal procedures were approved by the Institutional Animal Care and Use Committee of Sanford Burnham Prebys Medical Discovery Institute (SBP) and complied with all relevant ethical regulations for animal testing and research. C57BL/6 mice were obtained from Sanford Burnham Prebys Medical Discovery Institute. […] C3H/HeOuJ mice were purchased from Jackson laboratories. Male 6-8-week-old mice were used for all experiments. […] All mice were fed an autoclaved chow diet ad libitum (LabDiet 5K67, Purina Foods). […] Mouse selection for experiments was not formally randomized or blinded. For tumor growth experiments, mice were injected subcutaneously (s.c.) with 1×10^6 tumor cells. Tumor size was measured twice a week for calculation of tumor volume. Tumors were weighed at the time of excision.
# Mucin and inulin treatment. For mucin treatment, C57BL/6 mice were subjected to control or water supplemented with 3% mucin (Lee Biosolutions) prior to (14 days) and during tumor inoculation. […]
substance,measurement,setting,value
mucin,melanoma tumor growth,Yumm1.5 tumors,attenuated
same,OT-I CD8+ T cells in tumor-draining lymph nodes,OT-I CD8+ T cells,more abundant
same,"expression of Granzyme B, CCL4, and CCL5 in CD8+ T cells",CD8+ T cells,enhanced expression
same,SW1 tumor growth,[1],attenuated tumor growth
